Data set [1] deals with CBFβ binding to the RUNX1 Runt domain (Homo sapiens (Human), UniProt Q13951). The experiment in a line: FRET assay, inhibition of CBFβ binding to the RUNX1 Runt domain. To be noted: for IC50: inhibition of wild-type CBFβ binding to the RUNX1 Runt domain, NA = not active; for activity in FRET assay (structure-activity relationship, in words): relative to Al-4-57 or parent compounds. The source says:
Fluorescence Resonance Energy Transfer (FRET) Assay:
As described in U.S. Pat. No. 8,748,618 and published PCT application WO2010/132684, a FRET assay can be used to effectively monitor the inhibition of CBF binding to the Runt domain of RUNX proteins (as well as for CBFβ-SMMHC binding to the Runt domain of RUNX proteins). For the assay, the green fluorescent protein derivative Cerulean is fused to the N-terminus of the Runt domain and the green fluorescent protein derivative Venus to the N-terminus of CBFβ (Gorczynski, M. J., J. Grembecka, et al. (2007), “Allosteric inhibition of the protein-protein interaction between the leukemia-associated proteins Runx1 and CBFbeta.” Chem Biol 14(10): 1186-97), or to CBFβ-SMMHC (Illendula, A. et al. Chemical biology. A small-molecule inhibitor of the aberrant transcription factor CBFbeta-SMMHC delays leukemia in mice. Science 347, 779-784, doi:10.1126/science.aaa0314 (2015)). The ratio of the emission intensities at 525 nm and 474 nm, measured after excitation at 433 nm, was used as the readout in this assay. The dynamic range for the FRET assay was determined by adding a 30-fold excess of untagged CBFβ (or CBFβ-SMMHC) to the assay and the associated change in the FRET ratio was defined as 100% inhibition.

Another data set concerns 11 leukemia cell lines. Briefly: Viability of a panel of 11 leukemia cell lines. The format is cell-based. To be noted: 48 hours of treatment. The text has this:
Compounds Al-4-88, Al-4-57, Al-10-47, Al-10-104, and Al-14-91 were screened against a panel of 11 leukemia cell lines with varying genotypes.
The viability is represented as the percent DAPI negative cells relative to DMSO control. Each symbol/color in the graphs of FIG. 4 represent an individual cell line. The symbol represents the mean of independent replicates and the error bars represent the SEM. The table indicates the morphology, type of leukemia, and known mutations for each of the 11 cell lines.

The target in data set [2] is CBFβ-SMMHC binding to the RUNX1 Runt domain. To be noted: U.S. Pat. No. 8,748,618; read-out: IC50, binding of CBF-SMMHC to the RUNX1 Runt domain; cited from earlier work.
For data set [3] the following is noted: previous work, Illendula et al. Science 2015; cited from earlier work.
The subject of data set [4] is T-ALL cell lines Jurkat, HBP-ALL, Loucy, and KOPTK1. The experiment in a line: Proliferation of T-ALL cell lines. It counts as cell-based, human.
A further data set deals with H520 lung cancer cells. The experiment in a line: MTT growth assay, H520 cells. The format is cell-based. To be noted: H520, 10 μM, 72 hrs. The method, then:
(§1) Activity of Al-10-104 was tested using several lung cancer cell lines and one immortalized, non-transformed lung cell line. […] Data for the squamous cell carcinoma of the lung cell line H520 and the immortalized normal lung epithelial cell line BEAS-2B are shown in FIG. 10.
(§2) H520 cells were cultured in RPMI 1640 medium, supplemented with fetal bovine serum (10% final concentration), Hepes (1%), and sodium priruvate (1%). The MTT assay used 4×10^5/ml cells. BEAS-2B cells were cultured in DMEM medium with fetal bovine serum (10% final concentration). The MTT assay for the BEAS-2B cell line was performed using 3.5×10^5/ml cells.
(§3) Al-4-88 had no effect on either cell line.

The test system of data set [5] is BEAS-2B normal lung cells. The experiment in a line: MTT growth assay, BEAS-2B cells. It counts as cell-based. To be noted: 10 μM, 72 hrs. The method, then:
as §1, §2, §3

The target of data set [6] is binding of CBFβ to RUNX1 in SEM cells (Homo sapiens (Human), UniProt Q13951). The experiment in a line: Co-immunoprecipitation of CBFβ with RUNX1 in SEM cells. The format is cell-based. To be noted: 10 μM, 6 hours. The method, then: To test whether the wild-type CBFβ Inhibitors can disrupt the binding of CBFβ to RUNX1 in cells, co-immunoprecipitation experiments were performed in the SEM cell line. Co-immunoprecipitation assays of lysates from […] SEM cells were treated with Al-4-88^1, Al-10-47, Al-10-104, Al-12-126 and Al-14-91 at 10 μM for 6 hours. RUNX1-bound CBFβ protein levels and immunoprecipitated RUNX1 are shown on the top panel of FIG. 2A. Quantification of RUNX1 bound CBFβ is shown on the bottom graph.
Chain of binding of CBFβ to RUNX1 in SEM cells (Q13951 whole entry): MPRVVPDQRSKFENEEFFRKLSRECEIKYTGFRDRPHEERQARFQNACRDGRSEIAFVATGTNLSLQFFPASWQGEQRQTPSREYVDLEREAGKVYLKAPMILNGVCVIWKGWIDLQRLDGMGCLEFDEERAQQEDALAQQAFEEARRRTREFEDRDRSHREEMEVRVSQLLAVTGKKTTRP

Data set [7] is described as follows: Aqueous solubility in 0.25% DMSO by NMR spectroscopy. The format is physicochemical. To be noted: kinetic from dmso stock. The method, then: Al-10-104, Al-12-126, and Al-14-91 were all soluble at concentrations above 100 μM. […] As the Runt domain is highly conserved among all three RUNX family members, we would expect to see similar effects on binding to RUNX2 or RUNX3. Therefore, the action of the inhibitors will likely affect the activity of all three RUNX family members.

The nature of data set [8]: Sedative effects and tolerability in mice after IP administration. It counts as in vivo. To be noted: HCl salts with Captisol, IP at 100 mg/kg. The text has this: “NA” indicates not active. […] Reasoning that this effect depended on the ability of the compound to cross the blood brain barrier (BBB), compounds Al-12-126 and Al-14-91 have appended morpholine ring substituents to the 5 position of the pyridine ring to increase the polarity of the compounds and thereby limit BBB penetration.

The next data set deals with MCF10A-5E cells. The experiment in a line: Multiacini formation in 3D culture of MCF10A-5E cells. The format is cell-based. To be noted: shRUNX1 or control cells, 3D culture 10-11 days, compared to carrier control or Al-4-88. The source says:
CBFβ inhibitors altered acinar morphogenesis of the basal-like (triple negative) breast epithelial cells and blocked survival of basal-like breast cancer cells in 3D organotypic culture. To evaluate whether CBFβ inhibition would influence the multicellular organization of basal-like breast epithelia, 3D culture of MCF10A-5E cells was used. Knockdown of RUNX1 in these cells delayed proliferation arrest and promoted the formation of nonspherical acini, indicating a role for RUNX1 during morphogenesis.
The multiacini resulting from CBFβ inhibition were not radially symmetric, thereby arguing against a general defect in cell polarity or proliferation arrest. Instead, the inhibitors appeared to be initiating a nascent branching program that is reminiscent of when TGFβ-family signaling is impaired.
FIG. 9A: MCF10A-5E cells stably expressing shRUNX1 or shGFP control were grown in 3D culture for 10-11 days with the indicated compounds and imaged by Brightfield microscopy. The total number of multiacini per chamber was counted and scaled to the shGFP DMSO control. Data are shown as the mean±SEM of eight independent cultures.

Another data set relates to MLL-AF4 leukemia cells. The experiment in a line: Cell death of MLL-AF4 leukemia cells. The format is cell-based, human.
Setting [9] is: aqueous, 0.25% DMSO, NMR spectroscopy, read-out: aqueous solubility.

In brackets after ≈: the same amount, converted by molar mass. Read-outs that look alike come from different tables or passages of the source.

Chain of CBFβ binding to the RUNX1 Runt domain (Q13951 1-141): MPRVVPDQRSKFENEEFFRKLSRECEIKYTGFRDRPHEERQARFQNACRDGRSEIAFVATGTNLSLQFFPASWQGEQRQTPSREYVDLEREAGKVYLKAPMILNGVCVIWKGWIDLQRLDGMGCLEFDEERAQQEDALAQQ

As to `COc1ccc2[nH]c(-c3ccccn3)nc2c1` [Al-4-57], the IC50 was 34 µM in data set [1] and 22 µM in [2]. In addition, in the data set on 11 leukemia cell lines, the “percent viability (DAPI negative cells relative to DMSO)” value is “only very weak activity”. Besides, in data set [3], the half-life in mice result is recorded as “short half-life”.
For the molecule `Cc1ccc2[nH]c(-c3ccccn3)nc2c1` [Compound 3d, 5-methyl-2-(pyridin-2-yl)-1H-benzo[d]imidazole], the “activity in FRET assay (structure-activity relationship, in words)” value (from here on “activity in FRET assay”) in [1] is given as “loss of activity”.
`Fc1ccc2[nH]c(-c3ccccn3)nc2c1` [Compound 3c, 5-fluoro-2-(pyridin-2-yl)-1H-benzo[d]imidazole] showed an IC50 in [1] not below 34.3 µM.
As to `COc1ccc2[nH]c(-c3ccccc3)nc2c1` [Compound 2a, 5-methoxy-2-phenyl-1H-benzo[d]imidazole], the “activity in FRET assay” value in [1] is on record as “complete loss of activity”.
Turning to `c1ccc(-c2nc3ccccc3[nH]2)nc1` [Al-4-88, reference compound], the “percent viability (DAPI negative cells relative to DMSO)” value in the data set with 11 leukemia cell lines is given as “No activity”. In addition, the proliferation result in [4] was “did not have such an effect”. For the same molecule, the “cell growth (MTT assay)” value (with H520 lung cancer cells; in [5]) was “no effect” in each case.
As to `COc1ccc2[nH]c(-c3cccc(C)n3)nc2c1` [Compound 4h, 5-methoxy-2-(6-methylpyridin-2-yl)-1H-benzo[d]imidazole], in [1], the “activity in FRET assay” value was “inactive”.
As to `COc1ccc2[nH]c(-c3cccc(OC)n3)nc2c1` [Compound 4g, 5-methoxy-2-(6-methoxypyridin-2-yl)-1H-benzo[d]imidazole], the “activity in FRET assay” value in data set [1] is “inactive”.
Regarding `FC(F)(F)c1ccc2[nH]c(-c3ccccn3)nc2c1` [Compound 3f, 2-(pyridin-2-yl)-5-(trifluoromethyl)-1H-benzo[d]imidazole], the “activity in FRET assay” value in data set [1] is given as “loss of activity”.
As for `COc1cnc(-c2nc3cc(OC(F)(F)F)ccc3[nH]2)c(OC)c1` [Al-12-16], in [1], the concentration for half-maximal inhibition (IC50) came to 1.69 ± 0.18 µM.
Molecule `COc1cc(OCCN2CCOCC2)cnc1-c1nc2cc(OC(F)(F)F)ccc2[nH]1` [Al-14-91] showed an IC50 in [1] of 2.97 ± 0.53 µM. In data set [6], the “RUNX1-bound CBFβ (co-immunoprecipitation)” value (from here on “RUNX1-bound CBFβ”) is given as “reduction in binding”. The solubility in [7] (setting [9]) is more than 100 µM. Besides, in data set [8], the sedative effects entry is “did not induce the sedative effects” and the tolerability entry was “well-tolerated”. Moreover, the “percent viability (DAPI negative cells relative to DMSO)” value in the data set on 11 leukemia cell lines is recorded as “significant inhibition of the majority of the cell lines”. In the data set on MCF10A-5E cells, the “formation of multiacinar structures” value is on record as “dramatic increase”.
`COc1ccnc(-c2nc3cc(OC(F)(F)F)ccc3[nH]2)c1OC` [Al-14-72]: in [1], the IC50 was found to be 1.72 ± 0.23 µM.
The molecule `CCOc1ccc2[nH]c(-c3ccccn3)nc2c1` [Compound 3b, 5-ethoxy-2-(pyridin-2-yl)-1H-benzo[d]imidazole] gave a concentration for half-maximal inhibition (IC50) in [1] not below 34.3 µM.
As for `COc1cccc2[nH]c(-c3ccccn3)nc12` [Compound 4a, 4-methoxy-2-(pyridin-2-yl)-1H-benzo[d]imidazole], in data set [1], the 50% inhibitory concentration (IC50) is not below 34.3 µM and the “activity in FRET assay” value was “reduced activity”.
As to `FC(F)(F)Oc1ccc2[nH]c(-c3ncccc3OCCN3CCOCC3)nc2c1` [Al-14-55], the concentration for half-maximal inhibition (IC50) in [1] was found to be 4.83 ± 0.32 µM.
In the case of `FC(F)(F)Oc1ccc2[nH]c(-c3ccccn3)nc2c1` [Al-10-47], the IC50 in data set [1] was determined as 3.19 ± 0.5 µM. Further, the “RUNX1-bound CBFβ” value in data set [6] was “only a modest effect”. Further, the concentration in solution in data set [7] (solubility) was 0.44 µM (≈ 0.123 µg/mL). Moreover, the “percent viability (DAPI negative cells relative to DMSO)” value in the data set with 11 leukemia cell lines is recorded as “significant inhibition of the majority of the cell lines”. Moreover, the cell death result in the data set with MLL-AF4 leukemia cells was “induced cell death”.
Consider `COc1ccc2[nH]c(-c3ccco3)nc2c1` [Compound 2b, 2-(furan-2-yl)-5-methoxy-1H-benzo[d]imidazole], for which the “activity in FRET assay” value in data set [1] is given as “complete loss of activity”.
The molecule `FC(F)(F)Oc1ccc2[nH]c(-c3ccc(OCCN4CCOCC4)cn3)nc2c1` [Al-12-126] showed an IC50 in data set [1] of 8.91 ± 1.3 µM. The “RUNX1-bound CBFβ” value in [6] is recorded as “reduction in binding”. In addition, the solubility in [7] (setting [9]) was more than 100 µM. Further, in data set [8], the sedative effects result is listed as “did not induce the sedative effects” and the tolerability result is “well-tolerated”.
Turning to `CN(C)c1cccnc1-c1nc2cc(OC(F)(F)F)ccc2[nH]1` [Al-14-18], the half-inhibitory concentration (IC50) in data set [1] came to 4.97 ± 0.27 µM.
As to `c1ccc(-c2nc3ccccc3[nH]2)nc1` [Compound 3a, 2-(pyridin-2-yl)-1H-benzo[d]imidazole], the “activity in FRET assay” value in [1] is given as “complete loss of activity”.
In the case of `O=C(O)c1cccnc1-c1nc2cc(OC(F)(F)F)ccc2[nH]1` [Al-12-150], the IC50 in [1] came out at 48.9 ± 1.6 µM.

Values taken from patent US10562890B2, “Cancer therapeutics” (UNIVERSITY OF VIRGINIA PATENT FOUNDATION, priority 2014, dated 2020).
